Experimental data published in PubChem BioAssay (NCI).
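How tested: cells in 96-well plates exposed to compound for 48 hours at five concentrations. Definition used: TGI = concentration required for complete inhibition of growth.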

Experiments:
Experiment in all cases: NCI-60 cell line screen, 48 h
[1] = tested on: 786-0 renal
[2] = tested on: A498 renal
[3] = tested on: A549 NSCLC
[4] = tested on: ACHN renal
[5] = tested on: CAKI-1 renal
[6] = tested on: CCRF-CEM leukemia
[7] = tested on: COLO 205 colon
[8] = tested on: DLD-1 colon
[9] = tested on: DMS 114 small cell lung
[10] = tested on: DMS 273 small cell lung
[11] = tested on: EKVX NSCLC
[12] = tested on: HCC-2998 colon
[13] = tested on: HCT-116 colon
[14] = tested on: HCT-15 colon
[15] = tested on: HL-60(TB) leukemia
[16] = tested on: HOP-18 NSCLC
[17] = tested on: HOP-62 NSCLC
[18] = tested on: HOP-92 NSCLC
[19] = tested on: HT29 colon
[20] = tested on: IGROV1 ovarian
[21] = tested on: K-562 leukemia
[22] = tested on: KM12 colon
[23] = tested on: KM20L2 colon
[24] = tested on: LXFL 529 NSCLC
[25] = tested on: M14 melanoma
[26] = tested on: M19-MEL melanoma
[27] = tested on: MALME-3M melanoma
[28] = tested on: MOLT-4 leukemia
[29] = tested on: NCI-H226 lung
[30] = tested on: NCI-H23 lung
[31] = tested on: NCI-H460 lung
[32] = tested on: NCI-H522 lung
[33] = tested on: OVCAR-3 ovarian
[34] = tested on: OVCAR-4 ovarian
[35] = tested on: OVCAR-5 ovarian
[36] = tested on: OVCAR-8 ovarian
[37] = tested on: RPMI-8226 leukemia
[38] = tested on: RXF-631 renal
[39] = tested on: SF-268 CNS
[40] = tested on: SF-295 CNS
[41] = tested on: SF-539 CNS
[42] = tested on: SK-MEL-28 melanoma
[43] = tested on: SK-MEL-5 melanoma
[44] = tested on: SK-OV-3 ovarian
[45] = tested on: SN12C renal
[46] = tested on: SNB-19 CNS
[47] = tested on: SNB-75 CNS
[48] = tested on: SNB-78 CNS
[49] = tested on: SW-620 colon
[50] = tested on: TK-10 renal
[51] = tested on: U251 CNS
[52] = tested on: UACC-257 melanoma
[53] = tested on: UACC-62 melanoma
[54] = tested on: UO-31 renal
[55] = tested on: RXF 393 renal
[56] = tested on: SK-MEL-2 melanoma

O=C(CCc1n[nH]c(=S)o1)Nc1ccc(Cl)cc1Cl
TGI [1]: > 100 µM | TGI [2]: > 100 µM | TGI [3]: > 100 µM | TGI [4]: > 100 µM | TGI [5]: > 100 µM | TGI [6]: > 100 µM | TGI [7]: > 100 µM | TGI [8]: > 100 µM | TGI [9]: > 100 µM | TGI [10]: > 100 µM | TGI [11]: > 100 µM | TGI [12]: > 100 µM | TGI [13]: > 100 µM | TGI [14]: 46.1 µM | TGI [15]: > 100 µM | TGI [16]: > 100 µM | TGI [17]: > 100 µM | TGI [18]: > 100 µM | TGI [19]: > 100 µM | TGI [20]: > 100 µM | TGI [21]: > 100 µM | TGI [22]: > 100 µM | TGI [23]: > 100 µM | TGI [24]: > 100 µM | TGI [25]: > 100 µM | TGI [26]: > 100 µM | TGI [27]: > 100 µM | TGI [28]: > 100 µM | TGI [29]: > 100 µM | TGI [30]: > 100 µM | TGI [31]: > 100 µM | TGI [32]: > 100 µM | TGI [33]: > 100 µM | TGI [34]: > 100 µM | TGI [35]: > 100 µM | TGI [36]: > 100 µM | TGI [37]: 44.4 µM | TGI [38]: > 100 µM | TGI [39]: > 100 µM | TGI [40]: > 100 µM | TGI [41]: > 100 µM | TGI [42]: > 100 µM | TGI [43]: > 100 µM | TGI [44]: > 100 µM | TGI [45]: > 100 µM | TGI [46]: > 100 µM | TGI [47]: > 100 µM | TGI [48]: > 100 µM | TGI [49]: 29.9 µM | TGI [50]: > 100 µM | TGI [51]: > 100 µM | TGI [52]: > 100 µM | TGI [53]: > 100 µM | TGI [54]: > 100 µM

CNCCCCN(C)/[N+]([O-])=N\O
TGI [1]: > 100 µM | TGI [3]: > 100 µM | TGI [4]: > 100 µM | TGI [5]: > 100 µM | TGI [6]: > 100 µM | TGI [7]: > 100 µM | TGI [8]: > 100 µM | TGI [9]: > 100 µM | TGI [10]: > 100 µM | TGI [11]: > 100 µM | TGI [12]: > 100 µM | TGI [13]: > 100 µM | TGI [14]: > 100 µM | TGI [15]: > 100 µM | TGI [16]: > 100 µM | TGI [17]: > 100 µM | TGI [18]: > 100 µM | TGI [19]: > 100 µM | TGI [20]: > 100 µM | TGI [21]: > 100 µM | TGI [22]: > 100 µM | TGI [23]: > 100 µM | TGI [24]: > 100 µM | TGI [25]: > 100 µM | TGI [26]: > 100 µM | TGI [27]: > 100 µM | TGI [28]: > 100 µM | TGI [29]: > 100 µM | TGI [30]: > 100 µM | TGI [31]: > 100 µM | TGI [32]: > 100 µM | TGI [33]: > 100 µM | TGI [34]: > 100 µM | TGI [35]: > 100 µM | TGI [36]: > 100 µM | TGI [37]: > 100 µM | TGI [55]: > 100 µM | TGI [38]: > 100 µM | TGI [39]: > 100 µM | TGI [40]: > 100 µM | TGI [41]: > 100 µM | TGI [56]: > 100 µM | TGI [42]: > 100 µM | TGI [43]: > 100 µM | TGI [44]: > 100 µM | TGI [45]: > 100 µM | TGI [46]: > 100 µM | TGI [47]: > 100 µM | TGI [48]: > 100 µM | TGI [49]: > 100 µM | TGI [51]: > 100 µM | TGI [52]: > 100 µM | TGI [53]: > 100 µM | TGI [54]: > 100 µM
